Here are results for four compounds from ChEMBL document CHEMBL6078611, “A potent GPX4 degrader to induce ferroptosis in HT1080 cells” (Eur J Med Chem, 2024).

Structures are written as SMILES. The source made the active and inactive calls. The calls are words filed in the database; no cut-off is given here.

A short description of data set [1]: Cytotoxicity against HEK293T cells assessed as reduction in cell viability incubated for 48 hrs by CCK-8 assay. As to conditions: human. The class given is toxicity, cell-based, HEK-293T. In general terms: Tetrazolium dyes change colour on reduction, which living cells bring about.
For data set [2], the system named is HT-1080. Put plainly: Antiproliferative activity against human HT-1080 cells assessed as reduction in cell viability incubated for 48 hrs by CCK-8 assay. The class given is functional, cell-based. As to conditions: HT-1080, 48 h.
The target of data set [3] is T1, Baculoviral IAP repeat-containing protein 2/Phospholipid hydroperoxide glutathione peroxidase GPX4 (Homo sapiens, UniProt Q13490+P36969). Put plainly: Protac activity at cIAP/GPX4 in human HT-1080 cells assessed as degradation of GPX4 at 3 uM incubated for 4 hrs by Western blot analysis. The class given is cell-based. (In general: In western blotting, separated proteins are transferred to a membrane and probed.)
Target sequence in this assay (P36969 whole entry, looked up): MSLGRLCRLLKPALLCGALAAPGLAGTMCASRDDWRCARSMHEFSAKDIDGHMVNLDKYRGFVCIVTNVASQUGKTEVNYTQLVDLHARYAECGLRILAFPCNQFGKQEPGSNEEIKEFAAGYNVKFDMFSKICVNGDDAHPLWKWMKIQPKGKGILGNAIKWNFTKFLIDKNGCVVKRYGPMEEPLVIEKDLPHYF
Target sequence in this assay (Q13490 whole entry, looked up): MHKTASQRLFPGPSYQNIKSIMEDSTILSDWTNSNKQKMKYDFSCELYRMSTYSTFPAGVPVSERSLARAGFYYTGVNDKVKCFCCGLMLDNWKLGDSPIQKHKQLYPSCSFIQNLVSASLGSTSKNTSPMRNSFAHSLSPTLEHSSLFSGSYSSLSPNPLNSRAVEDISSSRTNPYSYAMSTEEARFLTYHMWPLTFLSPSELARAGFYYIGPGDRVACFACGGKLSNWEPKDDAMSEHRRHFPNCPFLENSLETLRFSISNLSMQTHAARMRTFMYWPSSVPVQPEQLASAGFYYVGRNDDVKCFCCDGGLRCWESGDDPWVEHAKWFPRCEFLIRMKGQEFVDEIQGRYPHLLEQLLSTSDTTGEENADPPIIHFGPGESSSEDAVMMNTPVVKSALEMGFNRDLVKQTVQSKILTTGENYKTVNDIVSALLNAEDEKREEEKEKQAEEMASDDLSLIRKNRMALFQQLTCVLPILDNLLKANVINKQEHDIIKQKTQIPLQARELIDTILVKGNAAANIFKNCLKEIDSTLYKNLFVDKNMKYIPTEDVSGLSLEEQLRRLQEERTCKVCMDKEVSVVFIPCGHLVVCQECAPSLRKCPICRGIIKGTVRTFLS

The subject of data set [4] is HT-1080. Nature of the data set: Protac activity at MDM2/GPX4 in human HT-1080 cells assessed as degradation of GPX4 at 10 uM by Western blot analysis relative to control. The class given is cell-based.
Data set [5] addresses T1, Baculoviral IAP repeat-containing protein 2/Phospholipid hydroperoxide glutathione peroxidase GPX4. Nature of the data set: Protac activity at cIAP/GPX4 in human HT-1080 cells assessed as degradation of GPX4 at 10 uM incubated for 48 hrs by Western blot analysis relative to control. The class given is cell-based.
Target sequence in this assay (P36969 whole entry, looked up): as the sequence (P36969 whole entry, looked up) above
Target sequence in this assay (Q13490 whole entry, looked up): as the sequence (Q13490 whole entry, looked up) above
Data set [6] shares this target. Put plainly: Protac activity at cIAP/GPX4 in human HT-1080 cells assessed as degradation of GPX4 incubated for 48 hrs by Western blot analysis. The class given is cell-based.
Target sequence in this assay (Q13490 whole entry): as the sequence (Q13490 whole entry, looked up) above
Target sequence in this assay (P36969 whole entry): as the sequence (P36969 whole entry, looked up) above
Data set [7] has as its system HT-1080. Nature of the data set: Antiproliferative activity against human HT-1080 cells assessed as reduction in cell viability at 7.5 uM incubated for 48 hrs in presence of Fer-1 by CCK-8 assay. The class given is functional, cell-based.
The test system of data set [8] is HT-1080. Put plainly: Antiproliferative activity against human HT-1080 cells assessed as reduction in cell viability at 7.5 uM incubated for 48 hrs in presence of NAC by CCK-8 assay. The class given is functional, cell-based.
In data set [9] the test system is HT-1080. Put plainly: Antiproliferative activity against human HT-1080 cells assessed as induction of cell death incubated for 48 hrs in presence of Z-VAD-FMK by CCK-8 assay. The class given is functional, cell-based.
Data set [10] concerns the target T1, Baculoviral IAP repeat-containing protein 2/Phospholipid hydroperoxide glutathione peroxidase GPX4. Nature of the data set: Protac activity at cIAP/GPX4 in human HT-1080 cells assessed as degradation of GPX4 at 5 uM by Western blot analysis. As to conditions: time 12-72 hrs. The class given is cell-based.
Target sequence in this assay (P36969 whole entry, looked up): as above
Target sequence in this assay (Q13490 whole entry, looked up): as the sequence (Q13490 whole entry, looked up) above
Data set [11] relates to HT-1080. Nature of the data set: Induction of ferroptosis in human HT-1080 cells assessed as lipid peroxide accumulation at 10 uM in presence of DFOM by BODIPY 581/591C11 staining based analysis. The class given is functional, cell-based.
Data set [12] deals with HT-1080. Nature of the data set: Induction of ferroptosis in human HT-1080 cells assessed as lipid peroxide accumulation at 10 uM in presence of Fer-1 by BODIPY 581/591C11 staining based analysis. The class given is functional, cell-based.
Data set [13] deals with T1, Baculoviral IAP repeat-containing protein 2/Phospholipid hydroperoxide glutathione peroxidase GPX4. Nature of the data set: Protac activity at cIAP/GPX4 in human HT-1080 cells assessed as degradation of GPX4 at 5 uM preincubated with chloroquine for 4 hrs followed by compound addition and measured after 48 hrs by Western blot analysis. The class given is cell-based.
Target sequence in this assay (P36969 whole entry, looked up): as the sequence (P36969 whole entry, looked up) above
Target sequence in this assay (Q13490 whole entry, looked up): as the sequence (Q13490 whole entry, looked up) above

For data set [14] the target is unchanged. Nature of the data set: Protac activity at cIAP/GPX4 in human HT-1080 cells assessed as degradation of GPX4 at 5 uM preincubated with cIAP ligand B4 for 4 hrs followed by compound addition and measured after 48 hrs by Western blot analysis. The class given is cell-based.
Target sequence in this assay (P36969 whole entry, looked up): as the sequence (P36969 whole entry, looked up) above
Target sequence in this assay (Q13490 whole entry, looked up): as the sequence (Q13490 whole entry, looked up) above
Data set [15] has as its system Mitochondrial membrane. Nature of the data set: Induction of mitochondrial membrane potential loss in human HT-1080 cells at 10 uM incubated for 48 hrs in presence of NAC by JC-1 staining based flow cytometry analysis. The class given is cell membranes. (In general: Flow cytometry measures light scatter and fluorescence of single cells or particles in a stream.)
For data set [16], the system named is Mitochondrial membrane. Nature of the data set: Induction of mitochondrial membrane potential loss in human HT-1080 cells incubated for 48 hrs by JC-1 staining based flow cytometry analysis. The class given is cell membranes. As to conditions: dose 0.6-10 µM.
For data set [17], the target named is T1, Baculoviral IAP repeat-containing protein 2/Phospholipid hydroperoxide glutathione peroxidase GPX4. Nature of the data set: Protac activity at cIAP/GPX4 in human HT-1080 cells assessed as degradation of GPX4 at 5 uM preincubated with MG132 for 4 hrs followed by compound addition and measured after 48 hrs by Western blot analysis. The class given is cell-based.
Target sequence in this assay (P36969 whole entry, looked up): as the sequence (P36969 whole entry, looked up) above
Target sequence in this assay (Q13490 whole entry, looked up): as the sequence (Q13490 whole entry, looked up) above

The test system of data set [18] is HT-1080. Put plainly: Synergistic antiproliferative activity against human HT-1080 cells assessed as induction of cell death at 3.75 uM incubated for 48 hrs in presence of FeCl2 by CCK-8 assay. The class given is functional, cell-based.
Data set [19] has as its system HT-1080. Put plainly: Induction of ferroptosis in human HT-1080 cells assessed as lipid peroxide accumulation by BODIPY 581/591C11 staining based analysis. As to conditions: dose 0.6-10 µM. The class given is functional, cell-based.
The test system of data set [20] is HT-1080. Nature of the data set: Induction of ferroptosis in human HT-1080 cells assessed as lipid peroxide accumulation at 10 uM in presence of FeCl2 by BODIPY 581/591C11 staining based analysis. The class given is functional, cell-based.
Data set [21] concerns the target T1, Baculoviral IAP repeat-containing protein 2/Phospholipid hydroperoxide glutathione peroxidase GPX4. Put plainly: Protac activity at cIAP/GPX4 in human HT-1080 cells assessed as degradation of GPX4 at 5 uM measured upto 12 hrs after compound washout by Western blot analysis. The class given is cell-based.
Data set [22] has the same target. Nature of the data set: Protac activity at cIAP/GPX4 in human HT-1080 cells assessed as degradation of GPX4 at 5 uM preincubated with MLN4924 for 4 hrs followed by compound addition and measured after 48 hrs by Western blot analysis. The class given is cell-based.
For another data set, the system named is HEK-293T. Put plainly: Cytotoxicity against HEK293T cells assessed as reduction in cell viability at 40 uM incubated for 48 hrs by CCK-8 assay. The class given is toxicity, cell-based. As to conditions: human.
The subject of data set [23] is Mitochondrial membrane. Put plainly: Induction of mitochondrial membrane potential loss in human HT-1080 cells at 10 uM incubated for 48 hrs in presence of DFOM by JC-1 staining based flow cytometry analysis. The class given is cell membranes.
The subject of data set [24] is HT-1080. Put plainly: Antiproliferative activity against human HT-1080 cells assessed as reduction in cell viability at 7.5 uM incubated for 48 hrs in presence of DFOM by CCK-8 assay. The class given is functional, cell-based.
In data set [25] the test system is HT-1080. Nature of the data set: Induction of ferroptosis in human HT-1080 cells assessed as lipid peroxide accumulation at 10 uM in presence of NAC by BODIPY 581/591C11 staining based analysis. The class given is functional, cell-based.
Data set [26] concerns the target T1, Baculoviral IAP repeat-containing protein 2/Phospholipid hydroperoxide glutathione peroxidase GPX4. Put plainly: Protac activity at cIAP/GPX4 in human HT-1080 cells assessed as degradation of GPX4 at 5 uM preincubated with RSL3 for 4 hrs followed by compound addition and measured after 48 hrs by Western blot analysis. The class given is cell-based.

Regarding `COC(=O)c1ccc([C@H]2c3[nH]c4ccccc4c3C[C@H](C(=O)OC)N2C(=O)CCl)cc1`, the IC50 at 48 h in data set [1] was 10800 nM. Also, the IC50 with HT-1080 [2] is 1550 nM. Moreover, the outcome in data set [3] was inactive.
For the compound `COC(=O)[C@H]1Cc2c([nH]c3ccccc23)[C@H](c2ccc(C(=O)NCc3cn(CCOCCNC(=O)CN4CCN(C(=O)N5C(c6ccc(OC)cc6OC(C)C)=N[C@H](c6ccc(Cl)cc6)[C@@H]5c5ccc(Cl)cc5)CC4=O)nn3)cc2)N1C(=O)CCl`, the Activity in the data set with HT-1080 [4] came out at 60%.
Regarding `COC(=O)c1ccc([C@H]2c3[nH]c4ccccc4c3C[C@H](C(=O)NCc3cn(CCCCCC(=O)N[C@H](Cc4ccccc4)[C@H](O)C(=O)N[C@@H](CC(C)C)C(=O)OC)nn3)N2C(=O)CCl)cc1`, the Emax in data set [5] came out at 75%. Further, the DC50 in data set [6] was determined as 4220 nM.
Consider `COC(=O)[C@H](CC(C)C)NC(=O)[C@@H](O)[C@@H](Cc1ccccc1)NC(=O)CCCCCCCn1cc(CNC(=O)c2ccc([C@H]3c4[nH]c5ccccc5c4C[C@H](C(=O)OC)N3C(=O)CCl)cc2)nn1`, for which the outcome (with HT-1080 [7]; in the data set with HT-1080 [8]; in the data set with HT-1080 [11]; in the data set on HT-1080 [12]; in [13]; in [14]) was inactive. Moreover, the outcome (in the data set with Mitochondrial membrane [15]; in data set [17]; in the data set on HT-1080 [20]; in [22]; with Mitochondrial membrane [23]; with HT-1080 [24]) was inactive. Moreover, the outcome (in the data set with HT-1080 [25]; in [26]) was inactive. Also, the result (in the data set on HT-1080 [9]; in the data set on HT-1080 [18]; in [21]) was Active. For the same compound, the Activity result was “Time-dependent-effect” in [10], “Dose-dependent-effect” in the data set on Mitochondrial membrane [16], “Dose-dependent-effect” in the data set with HT-1080 [19] and “Toxic” in the data set on HEK-293T. In addition, the Emax in data set [5] was determined as 85%. Besides, the IC50 with HT-1080 [2] stood at 2370 nM. Moreover, the DC50 in data set [6] is 1680 nM.

As a reminder, the IC50 is the concentration that inhibits the measured activity by half. By Emax is commonly meant the greatest response seen or fitted, relative to the assay's reference. The term DC50 denotes the concentration giving 50% degradation.
